Consider seven substances from patent EP1472347B1, “IMPROVED PROTEIN EXPRESSION IN BACILLUS SUBTILIS” (Danisco US Inc., priority 2002, dated 2003).

No end group written: not given here.

The test system of the experiment is aprE transcription. Nature of the experiment: β-galactosidase assay of the aprE-lacZ transcriptional fusion with synthetic Phr pentapeptides added to the medium. The class given is cell-based, B. subtilis AL. As to conditions: for aprE transcription (β-galactosidase activity, relative to wild-type): 10 µM pentapeptide in TY medium at 37°C, 4 hours after transition point between exponential and post-exponential growth, strain grown without Phr peptides (WT) set to 100%. The method, then: Figure 1 provides a bar graph depicting the different effects of Phr pentapeptides on aprE transcription. The transcription of the aprE-IacZ gene fusion in B. subtilis AL grown in TY medium at 37°C in the presence of 10 µM of one of the following pentapeptides (see Table II): PhrA (A), PhrC, (C), PhrE (E), PhrF (F), PhrG (G), PhrI (I) or PhrK (K), or in the absence of pentapeptides (-), was measured 4 hours after the transition point between the exponential and post-exponential growth phases. β-galactosidase activities were determined in Units per OD600 (% of WT; aprE-lacZ transcription level of the strain grown in the absence of Phr peptides [WT] is set to 100%).
Figure 2 provides a graph showing that PhrE stimulates aprE transcription. […] Zero time (T0) indicates the transition point between the exponential and post-exponential growth phases.
Overnight cultures were diluted to an optical density (OD600) of 0.1 in fresh TY medium, supplemented with Phr60 pentapeptide, as appropriate. Samples for OD600 readings and β-galactosidase activity determinations were taken at hourly intervals. The assay and the calculation of β-galactosidase activity (expressed as units per OD600) of the samples was performed as known In the art (See, Miller, Experiments In Molecular Genetics, Cold Spring Harbor Laboratory Press, NY, [1982]).
To analyze whether chromosomally-encoded Rap-Phr systems might be Involved in protease production, B. subtilis AL (bearing an aprE-lacZ transcriptional fusion), was grown in TY medium supplemented with synthetic PhrA, -C, -E, -F, -G, -H, -I, or -K pentapeptides (Table II).
In this Example, experiments conducted to further assess the effects of Rap-Phr systems on the transcription of aprE are described. The RapE-PhrE system was used as a model for two reasons. […] To determine the effect of PhrE on aprE transcription during growth, synthetic PhrE was added at two concentrations (1 and 10 µg/ml) to the medium of B. subtilis AL. […] It was also noted that in the latter case, aprE transcription seemed to be improved during all growth phases.

As to ARNQT [PhrA], the “aprE transcription (β-galactosidase activity, relative to wild-type)” value is listed as 100-120 % relative to wild-type.
In the case of ERGMT [PhrC], the “aprE transcription (β-galactosidase activity, relative to wild-type)” value is reported as ~60 % relative to wild-type.
Regarding QRGMI [PhrF], the “aprE transcription (β-galactosidase activity, relative to wild-type)” value was ~135 % relative to wild-type.
With SRNVT [PhrE], the “aprE transcription (β-galactosidase activity, relative to wild-type)” value is on record as ~135 % relative to wild-type. In addition, where the note is “Figure 1, 10 µM pentapeptide, post-exponential growth phase”, the “effect on aprE transcription compared with all Phr pentapeptides tested” value is listed as “strongest positive effect on aprE transcription”. In addition, the “aprE transcription during growth (time course)” value (synthetic PhrE added at two concentrations (1 and 10 µg/ml) to the medium of B. subtilis AL, TY medium, 37°C, Figure 2) was “improved by the addition of PhrE only during the post-exponential growth phase in a PhrE concentration-dependent manner”.
On to DRVGA [PhrI], for which the “aprE transcription (β-galactosidase activity, relative to wild-type)” value is recorded as 100-120 % relative to wild-type.
ERPVG [PhrK]: the “aprE transcription (β-galactosidase activity, relative to wild-type)” value was 100-120 % relative to wild-type.
As for EKMIG [PhrG], the “aprE transcription (β-galactosidase activity, relative to wild-type)” value is recorded as 100-120 % relative to wild-type.
